Data published in article PMC10050424, “Structural basis of the substrate recognition and inhibition mechanism of Plasmodium falciparum nucleoside transporter PfENT1” (Nature Communications, 2023).
“And” between values parts separate entries of the source, which are not always exact repeats. Equal values may be shown once.

Assays:
PfENT1 = target: T1, PfENT1 (Plasmodium falciparum, UniProt Q8IDM6); experiment: cell-based; type: cell-based; conditions: for uptake of inosine: time course, PfENT1 knock-in yeast
T1 construct: expressed in transfected cells; host or cells: S. cerevisiae BY4741, FUI1 deleted, PfENT1 knock-in under the TEF1 promoter
Description: The S. cerevisiae strain (ATCC, #201388) BY4741 (MATa his3Δ1 leu2Δ0 met15Δ0 ura3Δ0) was used as the starting yeast strain. Yeast strains were cultured in YPD medium (20 g/L peptone, 10 g/L yeast extract, and 20 g/L dextrose). The antibiotic G418 was supplemented at a concentration of 250 μg/mL to select strains carrying the KanMX marker. E. coli DH5α was used for subcloning.
(§1) Codon-optimized PfENT1 (for expression in yeast) was synthesized by Sangon Biotech. The carboxyl terminus of PfENT1 was HA-tagged through PCR. The TEF1p promoter and PGK1t terminator were amplified from BY4741 genomic DNA. Overlap PCR was applied to generate the gene overexpression cassette of PfENT1 (TEF1p promoter-PfENT1-PGK1t terminator). The two 600-bp homologous arms corresponding to the upstream and downstream regions of the FUI1 gene were amplified from BY4741 genomic DNA. The gene cassette of the ‘TEF1p promoter-PfENT1-PGK1t terminator’ together with the two homologous arms was cloned into the PUC19 plasmid through Gibson assembly, generating the final plasmid PUC19: PfENT1. PfENT1 mutations were generated using point mutation and verified by Sanger sequencing. The spacer targeting the FUI1 gene (5ʹ-[…]-3ʹ) was cloned into the pCas-BsaI plasmid to generate the pCas-FUI1 plasmid as described previously.
To obtain fui1Δ and PfENT1 (or its mutations) overexpression in the S. cerevisiae strain, 1 μg pCas-FUI1 plasmid and 15 μg PUC19:PfENT1 were transformed into yeast using the LiAc/ssDNA/PEG method. Then, the strains were plated on a YPD plate supplemented with G418. Clones were screened using PCR and finally verified through Sanger sequencing.
Cells were grown overnight in YPD medium to mid-log phase and harvested by centrifugation at 3000 × g for 5 min. Cells were washed three times in 2% glucose. The yeast pellets were resuspended in uptake assay buffer (25 mM Tris-HCl 8.0,150 mM NaCl, 2% glucose) to a final concentration of 2 × 10^8 cells mL^–1. The uptake assay was initiated by combining 100 μL of prewarmed (30 °C) cells and 100 μL uptake assay buffer mixture: 25 mM Tris-HCl 8.0, 150 mM NaCl, 2% glucose, 200 nM [^3H] Inosine ([8-^3H] inosine; 20 Ci mmol^–1, American Radiolabeled Chemicals). Cells were removed onto a membrane filter at the appropriate times to generate the time course. After washing by vacuum filtration with 2 ml ice-cold 2% glucose, the radioactivity retained on the filter was incubated with 1 mL of ULTIMA GOLD scintillation fluid (Perkin Elmer, 77-15311). Counts were measured using a liquid scintillation analyzer (Perkin Elmer, Tri-Carb 5110TR).
For competition assays, the indicated nucleosides and nucleobase were added into the external uptake assay buffer (25 mM Tris-HCl 8.0, 150 mM NaCl, and 2% glucose) to a final concentration of 5 mM, and the transport reaction was stopped at 30 min. The reading of the competition assays was normalized against the one without a competitor, which had the uptake of radiolabeled inosine set as 100%. All uptake assays were performed at 30 °C and repeated three times. Error bars represent the s.d. The final result was analyzed in the GraphPad Prism 8 software ([…]).

PfENT1 W53A = target: T2, PfENT1 W53A (Plasmodium falciparum, UniProt Q8IDM6, W53A); experiment: Inosine uptake assay, yeast expressing PfENT1 W53A; type: cell-based; conditions: Fig. 3d, construct W53A
T2 construct: expressed in transfected cells; host or cells: S. cerevisiae BY4741, FUI1 deleted, PfENT1 mutant knock-in under the TEF1 promoter
From the text: as §1, with “previously. […]” for “previously.”
Cells were grown overnight in YPD medium to mid-log phase and harvested by centrifugation at 3000 × g for 5 min. […] After washing by vacuum filtration with 2 ml ice-cold 2% glucose, the radioactivity retained on the filter was incubated with 1 mL of ULTIMA GOLD scintillation fluid (Perkin Elmer, 77-15311). Counts were measured using a liquid scintillation analyzer (Perkin Elmer, Tri-Carb 5110TR). […]

T1 sequence (Q8IDM6 whole entry): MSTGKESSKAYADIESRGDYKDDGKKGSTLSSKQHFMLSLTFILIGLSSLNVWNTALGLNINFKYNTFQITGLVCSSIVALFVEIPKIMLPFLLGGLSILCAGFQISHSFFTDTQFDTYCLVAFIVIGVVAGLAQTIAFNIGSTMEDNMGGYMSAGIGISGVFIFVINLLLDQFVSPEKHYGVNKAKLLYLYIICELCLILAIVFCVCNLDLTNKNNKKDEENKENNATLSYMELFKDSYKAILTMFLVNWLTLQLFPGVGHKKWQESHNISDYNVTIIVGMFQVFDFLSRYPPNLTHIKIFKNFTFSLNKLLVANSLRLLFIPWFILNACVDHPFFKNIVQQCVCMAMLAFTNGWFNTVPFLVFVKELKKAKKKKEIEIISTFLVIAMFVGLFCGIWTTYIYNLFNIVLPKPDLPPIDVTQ
T2 sequence (Q8IDM6 whole entry W53A): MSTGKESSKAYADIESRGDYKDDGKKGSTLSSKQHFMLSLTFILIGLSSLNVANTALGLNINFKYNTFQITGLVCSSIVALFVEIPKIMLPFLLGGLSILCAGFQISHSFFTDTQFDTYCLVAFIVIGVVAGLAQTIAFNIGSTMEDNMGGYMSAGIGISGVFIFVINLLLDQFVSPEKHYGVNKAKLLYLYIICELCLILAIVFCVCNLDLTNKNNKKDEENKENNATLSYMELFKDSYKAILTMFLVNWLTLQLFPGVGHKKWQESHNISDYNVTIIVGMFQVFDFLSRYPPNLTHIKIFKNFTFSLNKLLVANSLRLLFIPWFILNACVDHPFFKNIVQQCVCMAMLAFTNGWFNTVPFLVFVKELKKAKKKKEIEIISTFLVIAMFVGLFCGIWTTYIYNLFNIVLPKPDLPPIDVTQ

OC[C@H]1O[C@@H](n2cnc3c(O)ncnc32)[C@H](O)[C@@H]1O [Inosine, inosine]
remaining activity at 5000 µM (PfENT1; 0.5 h, read-out: Uptake of [3H]-inosine (Percentage of PfENT1 WT), competition by nonradioactive nucleoside/nucleobase 5 mM, 30 min, 30 °C, uptake without competitor set as 100%, Fig. 1c): 11%
Uptake of [3H]-inosine (Percentage of PfENT1 WT) (PfENT1; competition by nonradioactive nucleoside/nucleobase 5 mM, 30 min, 30 °C, uptake without competitor set as 100%, Fig. 1c): abolished
uptake of inosine (PfENT1; time 1 (min), 3 independent experiments): 0.8242 fmol per million cells and 1.048 fmol per million cells and 1.269 fmol per million cells
uptake of inosine (PfENT1; time 5 (min)): 1.492 fmol per million cells and 1.522 fmol per million cells and 1.615 fmol per million cells
uptake of inosine (PfENT1; time 10 (min)): 2.864 fmol per million cells and 2.823 fmol per million cells and 2.628 fmol per million cells
uptake of inosine (PfENT1; time 20 (min)): 4.048 fmol per million cells and 4.1747 fmol per million cells and 4.441 fmol per million cells
uptake of inosine (PfENT1; time 30 (min)): 5.946 fmol per million cells and 6.16 fmol per million cells and 6.198 fmol per million cells
uptake of inosine (PfENT1; time 45 (min)): 10.3307 fmol per million cells and 9.87 fmol per million cells and 9.474 fmol per million cells
uptake of inosine (PfENT1; time 60 (min)): 11.051 fmol per million cells and 11.1951 fmol per million cells and 11.2042 fmol per million cells
Uptake of [3H]-inosine (Percentage of PfENT1 WT) (PfENT1 W53A): abolished the transport activity
